Assay results as given in patent US20220386573A1, “HUMANIZED MOUSE MODEL WITH HUMAN IMMUNE SYSTEM” (Board of Regents, The University of Texas System, priority 2019, published 2022).

Columns and labels:
Type in all cases: in vivo, mouse
NSGW41 H-Mice [1] = experiment: E2 administration in drinking water, tolerability; conditions: 1 μM estradiol or above, drinking water ad libitum
Procedure: (§1) E2 Administration. NSGW41 H-Mice were given drinking water ad libitum containing 1 μM estradiol.

NSGW41 H-Mice [2] = experiment: T-independent antibody response to DNP-CpG injection, E2 water vs plain water; conditions: DNP-CpG i.p.
Excerpt: While NP16-CGG evaluates the T cell-dependent response, the NSGW41 H-Mice immune system's ability to generate a T cell-independent antibody response was investigated. To do so, 16 mice NSGW41 H-Mice were segregated amongst the E2 and plain water groups and injected with Haptenated TLR9 ligand, DNP-CpG IP. […] Thus, NSGW41 H-Mice receiving E2 treatment can mount a mature antibody response to T-dependent and T-independent antigens complete with class-switched, high affinity antibody production and generation of both plasma and memory B cells.
(§2) Immunizations. NSGW41 H-Mice were injected intraperitoneally with 4-hydroxy-3-nitrophenylacetlyl (NP) conjugated to CGG (NP-CGG) (average: 16 NP molecule conjugated with one CGG molecule; Biosearch; 100 μg) in PBS (100 μl) with Alum (100 μl), or 2,4-Dinitrophenyl conjugated to CpG (DNP-CpG) (1 DNP molecule conjugated with one CpG molecule; Eurofins Genomics; 25 μg) in PBS (100 μl) without adjuvant. Sera were collected before injection and at specified time points after injection.
as §1
(§3) Detection of antibodies. Titers of IgM, IgD, IgG and IgA from in vitro culture supernatants of stimulated human and H-Mice B cells or titers of circulating and/or NP-binding/DNP-binding IgM, IgG, and IgA were measured using specific ELISAs. IgE were detected by sandwich ELISAs, using plates coated with anti-human IgE mAb. Serial two-fold diluted serum samples in PBS-(0.05%) Tween 20 (PBS-Tween 20) were added to the plates and incubated for 2 h at 23° C. After washing with PBS-Tween 20, biotin-detection antibody was added. After a final washing, IgE antibodies were detected using streptavidin-horseradish peroxidase. Antigen specific antibody titers are expressed as relative units (RU), defined as the dilution factor needed to reach 50% saturation binding, as calculated using GraphPad Prism® software (GraphPad).
(§4) Flow cytometry. Total B cells and PBMCs were subject to flow cytometry for pre-and-post isolation phenotypic analysis using the following surface markers and fluorophores: PEcy7-anti-human-CD19 (clone H1B19; Biolegend), PE-anti-human-CD27 (clone M-T271; Biolegend), BV421-anti-human-IgD (clone HB-7; Biolegend), FITC-anti-human-IgG (clone G18-145; BD Pharmingen), APC-anti-human-IgA (clone IS11-8E10; Miltenyi Biotec) and APC-Cy7-anti-IgM (clone MHM-88, Biolegend) and run on a BD LSRII (BD Biosciences) with the FACSDiva software (BD Biosciences). Data were analyzed using FlowJo software (FlowJo LLC).

NSGW41 H-Mice [3] = experiment: T-dependent antibody response to NP16-CGG immunization, E2 water vs plain water
Excerpt: To address the antibody response within NSGW41 H-Mice, 16 NSGW41 H-Mice were segregated into two groups of 8 mice each. One group was fed water containing estrogen (NSGW41 H-Mice) and the other plain water (huNSG^W41), each of them were then i.p. injected with NP16-CGG and Alum. The NSGW41 H-Mice were compared to Jackson Labs CD34^+ humanized mice (Jax CD34^+). […] However, the Jax CD34^+ had dramatically lower titers, correlating with reduced human reconstitution. […] (FIG. 3B).
E2 promotes myeloid lineage differentiation and B2 proliferation. Since estrogen administration had such a dynamic impact on the maturation of antibody response within NSGW41 H-Mice, the cellular composition and lymphoid architecture. B1/B2 cell ratios were compared across HIS platforms following immunization with NP-CGG. […] To investigate the formation of lymphoid follicles and germinal center structures, Jax CD34^+, huNSG, and NSGW41 H-Mice spleens were extracted 10 days post-immunization. […] These findings are supported by IHC staining of huCD20, huCD3 and huKI67 showing germinal center structures in NSGW41 H-Mice (FIG. 5D).
as §2, §1, §3, §4

[4] = NP16-CGG and alum i.p., E2-water vs plain water

In the case of `C[C@]12CC[C@@H]3c4ccc(O)cc4CC[C@H]3[C@@H]1CC[C@@H]2O` [E2, estradiol], the “Adverse effects of drinking water containing estradiol” value (NSGW41 H-Mice [1]) is reported as “no adverse effects”, the “Class-switched IgG and IgA antibody production” value (NSGW41 H-Mice [2]) is reported as “dynamically potentiated” and the “DNP4-binding IgM, IgG and IgA titers” value (NSGW41 H-Mice [2]) is reported as “significantly increased”. The “Numbers of IgG+ and IgA+ B cells, splenic IgD-CD27+ memory B cells and bone marrow CD27+CD38+ plasmablasts/plasma cells” value (NSGW41 H-Mice [2]) was “increased numbers”, the “Total IgM production” value (NSGW41 H-Mice [2]) was “comparable” and the “Class-switched IgG, IgG1-4, IgA and IgE production” value (NSGW41 H-Mice [3]; [4]) was “drastically increased”. For the same compound, the “NP7-binding IgM and IgG antibody titers” value (NSGW41 H-Mice [3]; [4]) was “significantly greater”, the “Number of spleen IgG and IgA class-switched effector, IgD-CD27+ memory B cells and bone marrow CD27+CD38+ plasmablasts/plasma cells” value (NSGW41 H-Mice [3]; [4]) was “increased number” and the IgM serum titers (NSGW41 H-Mice [3]; NP16-CGG and alum i.p., estrogen water (NSGW41 H-Mice) vs plain water (huNSGW41)) was “comparable”. The “Germinal center B cells” value (NSGW41 H-Mice [3]; lymph nodes, 10 days post-immunization with NP-CGG, estrogen pre-conditioned vs untreated) was “two-fold increase”.
